Series [1] in a line: water solubility in aqueous buffer under physiological conditions. The format is physicochemical. The settings on record: prodrug versus parent compound of formula IV, same conditions.
For series [2] the following is noted: cited from earlier work.

For the compound `COc1cc(Nc2ncc(F)c(Nc3ccc4c(n3)N(COP(=O)(O)O)C(=O)C(C)(C)O4)n2)cc(OC)c1OC` [compound of formula II], the “solubility relative to compound of formula IV (times greater)” value in series [1] is given as “approximately 2000 times”. In series [2] (aqueous buffer under physiological conditions (same conditions as formula IV)), the solubility result is reported as “greater than 5 mg/mL”. On to `COc1cc(Nc2ncc(F)c(Nc3ccc4c(n3)NC(=O)C(C)(C)O4)n2)cc(OC)c1OC` [compound of formula IV], for which the water solubility in series [2] (aqueous buffer under physiological conditions) is 1 to 2 µg/mL.

The record behind these values is US8481724B2, “Synthesis of 2,4-pyrimidinediamines” (Rigel Pharmaceuticals, Inc., priority 2009, dated 2013).
